Assay [1] has as its target T1, human LXRβ (Homo sapiens, UniProt P55055).
T1 construct: biotin (biotinylated; biotinylation tag not described); made in house; host or cells: E. coli
T1 sequence (P55055 1-460): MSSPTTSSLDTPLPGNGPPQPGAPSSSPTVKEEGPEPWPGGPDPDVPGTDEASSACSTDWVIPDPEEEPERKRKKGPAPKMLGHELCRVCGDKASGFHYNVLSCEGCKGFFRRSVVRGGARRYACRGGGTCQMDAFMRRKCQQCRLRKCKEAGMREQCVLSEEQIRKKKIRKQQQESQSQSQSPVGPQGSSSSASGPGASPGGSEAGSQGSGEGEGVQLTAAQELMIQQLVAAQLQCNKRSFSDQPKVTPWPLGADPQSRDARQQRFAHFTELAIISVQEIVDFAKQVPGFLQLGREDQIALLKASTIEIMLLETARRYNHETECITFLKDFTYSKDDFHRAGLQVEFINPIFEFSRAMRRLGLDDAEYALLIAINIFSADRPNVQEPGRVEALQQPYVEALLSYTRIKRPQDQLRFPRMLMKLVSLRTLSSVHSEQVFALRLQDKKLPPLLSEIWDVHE
Nature of the assay: Ligand-binding test procedure for human LXRβ (3H T0901317 competition, flash plates). The settings on record: for Binding ratio a/b: IC50 (μM) LXRα binding/IC50 (μM) LXRβ binding; for pIC50: biotinylated hLXRβ, tracer 3H T0901317.

The target in assay [2] is T2, human LXRα (Homo sapiens, UniProt Q13133).
T2 construct: biotin (biotinylated; biotinylation tag not described); made in house; host or cells: E. coli
T2 sequence (Q13133 1-447): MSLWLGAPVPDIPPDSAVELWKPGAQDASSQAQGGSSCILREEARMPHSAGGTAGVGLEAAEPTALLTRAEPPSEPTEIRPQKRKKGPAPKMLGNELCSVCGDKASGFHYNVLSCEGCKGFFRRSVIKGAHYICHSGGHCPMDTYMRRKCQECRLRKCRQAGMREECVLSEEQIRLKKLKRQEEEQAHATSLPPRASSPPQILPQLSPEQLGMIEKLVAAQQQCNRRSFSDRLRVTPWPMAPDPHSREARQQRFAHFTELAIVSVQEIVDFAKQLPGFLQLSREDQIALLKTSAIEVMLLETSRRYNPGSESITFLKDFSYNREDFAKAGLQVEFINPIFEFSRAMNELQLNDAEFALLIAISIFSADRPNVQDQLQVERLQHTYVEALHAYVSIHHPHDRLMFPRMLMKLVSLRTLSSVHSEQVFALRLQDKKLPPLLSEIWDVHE
The experiment in a line: Ligand-binding test procedure for human LXRα (3H T0901317 competition, flash plates). The settings on record: biotinylated hLXRα, tracer 3H T0901317. The essentials:
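Competition binding of test ligands against 5 nM ³H tracer solution (pre-mix concentration) on biotinylated hLXRα from E. coli extract, captured on streptavidin flash plates (Bmax ~4000 cpm). Ligand dilution series made in DMSO. Incubated overnight at +4 °C; bound radioactivity counted after washing.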

Data on 23 molecules can be found in patent US20090069373A1, “Quinoline Acids” (Wyeth, priority 2007, published 2009).

pIC50: −log10 of the molar value.

Consider `Cc1cc(NCc2cccc(-c3c(Cc4ccccc4)cnc4c(C(F)(F)F)cccc34)c2)ccc1C(=O)O` [Example 75, 4-({3-[3-benzyl-8-(trifluoromethyl)quinolin-4-yl]benzyl}amino)-2-methylbenzoic acid], for which, in assay [1], the Binding ratio a/b came out at 3 and the pIC50 is 7.60. The molecule further showed a pIC50 in assay [2] of 7.10.
For `Cc1ccc(C(=O)O)c(NCc2cccc(-c3c(Cc4ccccc4)cnc4c(C(F)(F)F)cccc34)c2)c1` [Example 33, 2-({3-[3-benzyl-8-(trifluoromethyl)quinolin-4-yl]benzyl}amino)-4-methylbenzoic acid], in assay [1], the Binding ratio a/b is recorded as 8 and the pIC50 is 6.78. In assay [2], the pIC50 was 5.89.
Turning to `COc1cc(NCc2cccc(-c3c(Cc4ccccc4)cnc4c(C(F)(F)F)cccc34)c2)c(Cl)cc1C(=O)O` [Example 18, 4-({3-[3-benzyl-8-(trifluoromethyl)quinolin-4-yl]benzyl}amino)-5-chloro-2-methoxybenzoic acid], in assay [1], the Binding ratio a/b is listed as 16 and the pIC50 was 7.92. The molecule also showed a pIC50 in assay [2] of 6.70.
Consider `Cc1cnc2c(C(F)(F)F)cccc2c1-c1cccc(CNc2ccc(CC(=O)O)c(C)c2C)c1` [Example 16, [2,3-dimethyl-4-({3-[3-methyl-8-(trifluoromethyl)quinolin-4-yl]benzyl}amino)phenyl]acetic acid], for which, in assay [1], the Binding ratio a/b was 18 and the negative logarithm of the IC50 (pIC50) is 6.53. In assay [2], this molecule had a pIC50 of 5.29.
The like results for `O=C(O)c1ccc(OCc2cccc(-c3c(Cc4ccccc4)cnc4c(C(F)(F)F)cccc34)c2)c(Cl)c1` [Example 85, 4-({3-[3-benzyl-8-(trifluoromethyl)quinolin-4-yl]benzyl}oxy)-3-chlorobenzoic acid] were, in that order, 3, 6.44 and 6.02.
As for `Cc1cnc2c(C(F)(F)F)cccc2c1-c1cccc(CNc2ccc3cc(C(=O)O)ccc3c2)c1` [Example 15, 6-({3-[3-methyl-8-(trifluoromethyl)quinolin-4-yl]benzyl}amino)-2-naphthoic acid], in assay [1], the Binding ratio a/b came out at 18. Besides, the negative-log IC50 (pIC50) in assay [1] was 6.93; in assay [2] it was 5.67.
In the case of `O=C(O)c1cccc(Oc2cccc(-c3c(Cc4ccccc4)cnc4c(Cl)cccc34)c2)c1` [Example 125, 3-[3-(3-Benzyl-8-chloroquinolin-4-yl)phenoxy]benzoic acid], in assay [1], the Binding ratio a/b stood at 1 and the pIC50 is 6.64. In assay [2], the pIC50 was 6.57.
On to `COc1cccc(NCc2cccc(-c3c(Cc4ccccc4)cnc4c(C(F)(F)F)cccc34)c2)c1C(=O)O` [Example 55, 2-({3-[3-benzyl-8-(trifluoromethyl)quinolin-4-yl]benzyl}amino)-6-methoxybenzoic acid], for which, in assay [1], the Binding ratio a/b was determined as 5 and the pIC50 was 6.44. The pIC50 in assay [2] is 5.74.
On to `O=C(O)c1ccc2cc(NCc3cncc(-c4c(Cc5ccccc5)cnc5c(C(F)(F)F)cccc45)c3)ccc2c1` [Example 6, 6-[({5-[3-Benzyl-8-(trifluoromethyl)quinolin-4-yl]pyridin-3-yl}methyl)amino]-2-naphthoic acid], for which the Binding ratio a/b in assay [1] amounted to 25. Besides, the results for the negative logarithm of the IC50 (pIC50) in assay [1] and in assay [2] were 6.74 and 5.35, respectively.
As for `Cc1cc(OCc2cncc(-c3c(Cc4ccccc4)cnc4c(C(F)(F)F)cccc34)c2)c(C)cc1CC(=O)O` [Example 17, [4-({5-[3-benzyl-8-(trifluoromethyl)quinolin-4-yl]pyridin-3-yl}methoxy)-2,5-dimethylphenyl]acetic acid], in assay [1], the Binding ratio a/b was 18. Further, the pIC50 in assay [1] was 8.52; in assay [2] it was 7.32.
In the case of `O=C(O)c1cccc(Oc2cccc(-c3c(Cc4ccccc4)cnc4c(C(F)(F)F)cccc34)c2)c1` [Example 126, 3-{3-[3-Benzyl-8-(trifluoromethyl)quinolin-4-yl]phenoxy}benzoic acid], in assay [1], the Binding ratio a/b is recorded as 2. Besides, the pIC50 in assay [1] was 6.87; in assay [2], 6.62.
Take `O=C(O)CC1CCc2c(OCc3cccc(-c4c(Cc5ccccc5)cnc5c(C(F)(F)F)cccc45)c3)cccc21` (centres unmarked) [Example 38, [4-({3-[3-benzyl-8-(trifluoromethyl)quinolin-4-yl]benzyl}oxy)-2,3-dihydro-1H-inden-1-yl]acetic acid]: in assay [1], the Binding ratio a/b turned out to be 7 and the pIC50 was 8.10. In assay [2], this molecule gave a pIC50 of 7.29.
For `O=C(O)CCc1ccc(NCc2cccc(-c3c(Cc4ccccc4)cnc4c(C(F)(F)F)cccc34)c2)cc1` [Example 27, 3-[4-({3-[3-benzyl-8-(trifluoromethyl)quinolin-4-yl]benzyl}amino)phenyl]propanoic acid], in assay [1], the Binding ratio a/b is listed as 10 and the negative-log IC50 (pIC50) is 7.47. The negative logarithm of the IC50 (pIC50) in assay [2] was 6.48.
For the molecule `O=C(O)c1ccc(F)cc1NCc1cccc(-c2c(Cc3ccccc3)cnc3c(C(F)(F)F)cccc23)c1` [Example 41, 2-({3-[3-benzyl-8-(trifluoromethyl)quinolin-4-yl]benzyl}amino)-4-fluorobenzoic acid], in assay [1], the Binding ratio a/b stood at 7 and the negative-log IC50 (pIC50) is 7.30. Besides, the pIC50 in assay [2] is 6.48.
The like results for `O=C(O)c1cccc(NCc2cccc(-c3c(Cc4ccccc4)cnc4c(C(F)(F)F)cccc34)c2)c1` [Example 51, 3-({3-[3-benzyl-8-(trifluoromethyl)quinolin-4-yl]benzyl}amino)benzoic acid] were, in that order, 6, 6.68 and 5.93.
The like results for `Cc1cc(NCc2ccsc2-c2c(Cc3ccccc3)cnc3c(C(F)(F)F)cccc23)c(C)cc1CC(=O)O` [Example 32, {4-[({2-[3-benzyl-8-(trifluoromethyl)quinolin-4-yl]-3-thienyl}methyl)amino]-2,5-dimethylphenyl}acetic acid] were, in that order, 8, 6.37 and 5.48.
For `COc1cc(C(=O)O)ccc1OCc1cccc(-c2c(Cc3ccccc3)cnc3c(C(F)(F)F)cccc23)c1` [Example 45, 4-({3-[3-benzyl-8-(trifluoromethyl)quinolin-4-yl]benzyl}oxy)-3-methoxybenzoic acid], in assay [1], the Binding ratio a/b is on record as 6 and the pIC50 is 6.45. Moreover, in assay [2], the pIC50 is 5.65.
With `O=C(O)c1ccc2cc(OCc3cccc(-c4c(Cc5ccccc5)cnc5c(C(F)(F)F)cccc45)c3)ccc2c1` [Example 39, 6-({3-[3-benzyl-8-(trifluoromethyl)quinolin-4-yl]benzyl}oxy)-2-naphthoic acid], in assay [1], the Binding ratio a/b is on record as 7. Also, the negative-log IC50 (pIC50) is 7.00 in assay [1] and 6.17 in assay [2].
In the case of `Cc1cnc2c(C(F)(F)F)cccc2c1-c1cccc(CNc2ccc(C(=O)O)c(Cl)c2)c1` [Example 73, 2-chloro-4-({3-[3-methyl-8-(trifluoromethyl)quinolin-4-yl]benzyl}amino)benzoic acid], in assay [1], the Binding ratio a/b stood at 3. Moreover, the pIC50 was 6.74 in assay [1] and 6.21 in assay [2].
In the case of `Cc1ccc(OCc2cccc(-c3c(Cc4ccccc4)cnc4c(C(F)(F)F)cccc34)c2)c(C(=O)O)c1` [Example 102, 2-({3-[3-benzyl-8-(trifluoromethyl)quinolin-4-yl]benzyl}oxy)-5-methylbenzoic acid], the Binding ratio a/b in assay [1] amounted to 2. Further, the pIC50 in assay [1] is 5.55; in assay [2] it was 5.32.
For `O=C(O)Cc1cccc2c(NCc3cncc(-c4ccnc5c(C(F)(F)F)cccc45)c3)cccc12` [Example 116, {5-[({5-[8-(trifluoromethyl)quinolin-4-yl]pyridin-3-yl}methyl)amino]-1-naphthyl}acetic acid], the pIC50 in assay [1] was 4.80; in assay [2], < 5.00.
For `Cc1ccc(CC(=O)O)c(NCc2cccc(-c3c(Cc4ccccc4)cnc4c(C(F)(F)F)cccc34)c2)c1C` [Example 35, [2-({3-[3-benzyl-8-(trifluoromethyl)quinolin-4-yl]benzyl}amino)-3,4-dimethylphenyl]acetic acid], in assay [1], the Binding ratio a/b was 7. The negative-log IC50 (pIC50) is 6.88 in assay [1] and 6.02 in assay [2].
As for `Cc1cc(NCc2cc(-c3c(Cc4ccccc4)cnc4c(C(F)(F)F)cccc34)cs2)c(C)cc1CC(=O)O` [Example 70, {4-[({4-[3-benzyl-8-(trifluoromethyl)quinolin-4-yl]-2-thienyl}methyl)amino]-2,5-dimethylphenyl}acetic acid], in assay [1], the Binding ratio a/b is 4 and the negative logarithm of the IC50 (pIC50) was 8.70. The negative logarithm of the IC50 (pIC50) in assay [2] is 8.15.

For orientation: pIC50 means the IC50 on a negative log10 scale, so that one unit is a factor of ten. Lower therefore signals a large IC50.
